Source: the NIST ThermoML archive (doi:10.1016/j.tca.2016.09.005)

Test: xn = mol fraction of the nth substance listed
Details: 100 kPa, Liquid; for speed of sound: Frequency=3 MHz, Sing-around technique in a fixed-path interferometer; for mass density: Vibrating tube method

OCCCO [propan-1,3-diol] + O
Details	mass density, 283.15 K [kg/m3]	mass density, 293.15 K [kg/m3]	mass density, 303.15 K [kg/m3]	mass density, 313.15 K [kg/m3]	speed of sound, 283.15 K [m/s]	speed of sound, 293.15 K [m/s]	speed of sound, 303.15 K [m/s]	speed of sound, 313.15 K [m/s]
x2 = 0	1058.85	1052.61	1046.36	1040.07	1659.5	1636.3	1613.6	1591.1
x2 = 0.1022	1059.27	1053.04	1046.79	1040.48	1672.9	1650.1	1627.2	1605
x2 = 0.201	1059.47	1053.26	1047.01	1040.68	1686.6	1664	1641.4	1618.9
x2 = 0.2987	1059.49	1053.3	1047.05	1040.7	1702	1679.4	1656.8	1634.1
x2 = 0.3998	1059.07	1052.91	1046.67	1040.3	1717.3	1695.2	1672.8	1650.2
x2 = 0.4997	1057.91	1051.82	1045.61	1039.25	1732	1710.5	1688.7	1666.4
x2 = 0.5997	1055.48	1049.54	1043.42	1037.1	1742.7	1722.7	1701.9	1680.5
x2 = 0.6999	1050.47	1044.85	1039.01	1032.92	1742	1725.1	1707.1	1688.1
x2 = 0.7999	1041.86	1036.89	1031.59	1025.94	1718.2	1707.4	1695	1680.9
x2 = 0.8997	1025.27	1021.75	1017.64	1012.95	1637.8	1641.2	1641.6	1639
